Consider ten compounds from patent publication US20260092073A1, “NOVEL COMPOUNDS” (Hoffmann-La Roche Inc., priority 2023, published 2026).

Data set [1] has as its target T1, NLRP3 (Homo sapiens, UniProt Q96P20). The data set can be described thus: Human whole blood IL-1β release assay. The format is cell-based. On the set-up: Human whole blood in Li-heparin tubes was obtained from healthy donors; from tissue; host or cells: human whole blood from healthy donors. The conditions noted are these: LPS, nigericin 10 μM, IL-1β by AlphaLisa. The protocol: For systemic delivery, the ability to inhibit NLRP3 when the compounds are present within the bloodstream is of great importance. For this reason, the NLRP3 inhibitory activity of a number of compounds in human whole blood was investigated in accordance with the following protocol.
Human whole blood in Li-heparin tubes was obtained from healthy donors from a volunteer donor panel.
Plate out 80 μl of whole blood containing […] of LPS in 96-well, clear bottom cell culture plate (Corning #3585)
Add 10 μl compound (8 points half-log dilution with 10 μM top dose) or vehicle (DMSO 0.1% FAC) to the appropriate wells
(§1) Incubate for 3 hours at 37° C., 5% CO2
Add 10 μl nigericin (Sigma #N7143) (10 μM FAC) to all wells
(§2) Incubate for 1 hr at 37° C., 5% CO2
At the end of the incubation period, spin plates at 300 xg for 5 mins to pellet cells and remove 20 μl of supernatant and add to 96-well v-bottom plates for IL-1β analysis (note: these plates containing the supernatants can be stored at −80° C. to be analysed at a later date)
IL-1β was measured according to the manufacturer protocol (Perkin Elmer-AlphaLisa IL-1 Kit AL220F-5000)
(§3) IC50 data is fitted to a non-linear regression equation (log inhibitor vs response-variable slope 4-parameters)

The target in data set [2] is T2, hERG cardiac potassium channel (Homo sapiens, UniProt Q12809).
T2 construct: Evotec (cryopreserved) ATCC PTA-6812; host or cells: CHO crelox hERG cell line (Chinese hamster)
T2 sequence (Q12809 whole entry): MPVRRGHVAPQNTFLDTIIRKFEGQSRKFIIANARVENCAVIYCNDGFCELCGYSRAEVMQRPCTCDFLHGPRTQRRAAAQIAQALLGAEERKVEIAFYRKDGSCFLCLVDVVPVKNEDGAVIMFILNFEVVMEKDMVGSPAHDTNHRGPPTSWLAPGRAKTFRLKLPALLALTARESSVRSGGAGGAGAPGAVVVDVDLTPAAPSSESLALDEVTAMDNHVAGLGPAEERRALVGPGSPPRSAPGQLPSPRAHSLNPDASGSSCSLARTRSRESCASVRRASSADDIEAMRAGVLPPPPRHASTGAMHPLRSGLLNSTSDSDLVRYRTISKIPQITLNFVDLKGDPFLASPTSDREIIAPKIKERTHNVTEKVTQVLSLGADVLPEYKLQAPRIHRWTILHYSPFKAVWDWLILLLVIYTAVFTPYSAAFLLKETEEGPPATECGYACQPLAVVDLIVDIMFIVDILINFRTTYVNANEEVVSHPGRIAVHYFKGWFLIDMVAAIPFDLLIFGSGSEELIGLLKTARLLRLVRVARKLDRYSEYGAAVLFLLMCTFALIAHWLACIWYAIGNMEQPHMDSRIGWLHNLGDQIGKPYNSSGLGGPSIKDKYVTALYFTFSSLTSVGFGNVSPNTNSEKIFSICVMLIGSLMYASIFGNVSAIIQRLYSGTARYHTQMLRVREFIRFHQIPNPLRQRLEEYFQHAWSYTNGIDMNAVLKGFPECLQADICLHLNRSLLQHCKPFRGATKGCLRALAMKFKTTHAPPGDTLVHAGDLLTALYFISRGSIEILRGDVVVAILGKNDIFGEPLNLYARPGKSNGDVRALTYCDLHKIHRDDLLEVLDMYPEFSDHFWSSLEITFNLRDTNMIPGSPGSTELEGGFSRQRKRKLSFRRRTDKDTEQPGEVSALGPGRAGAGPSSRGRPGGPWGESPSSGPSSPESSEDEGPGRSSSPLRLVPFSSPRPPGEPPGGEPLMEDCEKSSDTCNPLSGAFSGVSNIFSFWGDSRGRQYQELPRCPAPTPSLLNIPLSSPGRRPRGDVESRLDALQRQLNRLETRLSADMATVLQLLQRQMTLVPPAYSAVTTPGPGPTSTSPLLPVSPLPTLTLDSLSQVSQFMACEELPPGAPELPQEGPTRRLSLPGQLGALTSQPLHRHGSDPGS
The data set can be described thus: hERG screening assay (automated patch clamp, CHO-hERG cells). The format is cell-based. The conditions noted are these: CHO crelox hERG cells (CHO cells that express hERG), whole-cell patch clamp, 35-37° C. An excerpt:
In the drug development process of small molecules, one of the most frequent adverse side effects, leading to the failure of drugs, is the cardiac arrhythmias. Such failure is often related to the capacity of the drug to inhibit the human ether-à-go-go-related gene (hERG) cardiac potassium channel. Having no or low inhibition of the hERG cardiac potassium channel is therefore considered as beneficial.
The CHO crelox hERG cell line (ATCC reference Nr. PTA-6812, female Chinese hamster cells) was generated and validated at Roche. Ready-to-use frozen instant CHO-hERG cells were cryopreserved at Evotec (Germany) and used directly in the experiments.
The extracellular solution contains (in mM): NaCl 150; KCl 4; CaCl2 1; MgCl2 1; HEPES 10; pH 7.2-7.4 with NaOH, osmolarity 290-330 mOsm. The internal solution contains (in mM): KCl, 10; KF, 100; NaCl, 10; HEPES, 10; EGTA, 20; pH=7.0-7.4 with KOH, osmolarity 260-300 mOsm.
The effects of a compound on hERG K+-currents parameters will be evaluated at 2 concentrations in at least 4 cells.
The hERG test is performed using automated patch clamp system SynchroPatch® 384 (Nanion Technologies GmbH, Germany). K+ currents are measured with the patch-voltage-clamp technique in the whole-cell configuration at 35-37° C.
The amplitudes of IKhERG were recorded in each concentration of drug and they were compared to the vehicle control values (taken as 100%) to define fractional blocks. The concentration-response data were fitted with the following relationship:
Concentration-response curves were fitted by non-linear regression analysis using EworkBook suite (ID Business Solutions Ltd, UK). Data fit was done with the 4 Parameter Logistic Model (fit=(A+(B/(1+((x/C)^D)))), where A=0 and B=100).
In general terms: hERG is a cardiac potassium channel; its block is linked to QT prolongation.

Data set [3] concerns the target T1, NLRP3. Kind of data set: THP-1 cells pyroptosis assay. Also noted: Seed THP-1 cells (25,000 cells/well) containing 1.0 μg/ml LPS; host or cells: THP-1 cells, LPS-primed, nigericin-stimulated. As to conditions: LPS 1.0 μg/ml, nigericin 5 μM, resazurin readout. The format is cell-based.
Description: It is well established that the activation of NLRP3 leads to cell pyroptosis and this feature plays an important part in the manifestation of clinical disease (Yan-gang Liu et al., Cell Death & Disease, 2017, 8(2), e2579; Alexander Wree et al., Hepatology, 2014, 59(3), 898-910; Alex Baldwin et al., Journal of Medicinal Chemistry, 2016, 59(5), 1691-1710; Ema Ozaki et al., Journal of Inflammation Research, 2015, 8, 15-27; Zhen Xie & Gang Zhao, Neuroimmunology Neuroinflammation, 2014, 1(2), 60-65; Mattia Cocco et al., Journal of Medicinal Chemistry, 2014, 57(24), 10366-10382; T. Satoh et al., Cell Death & Disease, 2013, 4, e644). Therefore, it is anticipated that inhibitors of NLRP3 will block pyroptosis, as well as the release of pro-inflammatory cytokines (e.g. […]) from the cell.
THP-1 cells (ATCC #TIB-202) were grown in RPMI containing L-glutamine (Gibco #11835) supplemented with 1 mM sodium pyruvate (Sigma #S8636) and penicillin (100 units/ml)/streptomycin (0.1 mg/ml) (Sigma #P4333) in 10% Fetal Bovine Serum (FBS) (Sigma #F0804). The cells were routinely passaged and grown to confluency (˜10^6 cells/ml). On the day of the experiment, THP-1 cells were harvested and resuspended into RPMI medium (without FBS). The cells were then counted and viability (>90%) checked by Trypan blue (Sigma #T8154). Appropriate dilutions were made to give a concentration of 625,000 cells/ml. To this diluted cell solution was added LPS (Sigma #L4524) to give a […] Final Assay Concentration (FAC). 40 μl of the final preparation was aliquoted into each well of a 96-well plate. The plate thus prepared was used for compound screening.
The following method step-by-step assay was followed for compound screening.
Seed THP-1 cells (25,000 cells/well) containing 1.0 μg/ml LPS in 40 μl of RPMI medium (without FBS) in 96-well, black walled, clear bottom cell culture plates coated with poly-D-lysine (VWR #734-0317)
Add 5 μl compound (8 points half-log dilution, with 10 μM top dose) or vehicle (DMSO 0.1% FAC) to the appropriate wells
as §1
Add 5 μl nigericin (Sigma #N7143) (FAC 5 μM) to all wells
as §2
At the end of the incubation period, spin plates at 300 xg for 3 mins and remove supernatant
Then add 50 μl of resazurin (Sigma #R7017) (FAC 100 μM resazurin in RPMI medium without FBS) and incubate plates for a further 1-2 hours at 37° C. and 5% CO2
Plates were read in an Envision reader at Ex 560 nm and Em 590 nm
as §3

For the next data set, the target named is T3, human P-gp (Homo sapiens, UniProt P08183).
T3 construct: expressed in transfected cells; host or cells: LLC-PK1 (porcine kidney epithelial cells)
T3 sequence (P08183 whole entry): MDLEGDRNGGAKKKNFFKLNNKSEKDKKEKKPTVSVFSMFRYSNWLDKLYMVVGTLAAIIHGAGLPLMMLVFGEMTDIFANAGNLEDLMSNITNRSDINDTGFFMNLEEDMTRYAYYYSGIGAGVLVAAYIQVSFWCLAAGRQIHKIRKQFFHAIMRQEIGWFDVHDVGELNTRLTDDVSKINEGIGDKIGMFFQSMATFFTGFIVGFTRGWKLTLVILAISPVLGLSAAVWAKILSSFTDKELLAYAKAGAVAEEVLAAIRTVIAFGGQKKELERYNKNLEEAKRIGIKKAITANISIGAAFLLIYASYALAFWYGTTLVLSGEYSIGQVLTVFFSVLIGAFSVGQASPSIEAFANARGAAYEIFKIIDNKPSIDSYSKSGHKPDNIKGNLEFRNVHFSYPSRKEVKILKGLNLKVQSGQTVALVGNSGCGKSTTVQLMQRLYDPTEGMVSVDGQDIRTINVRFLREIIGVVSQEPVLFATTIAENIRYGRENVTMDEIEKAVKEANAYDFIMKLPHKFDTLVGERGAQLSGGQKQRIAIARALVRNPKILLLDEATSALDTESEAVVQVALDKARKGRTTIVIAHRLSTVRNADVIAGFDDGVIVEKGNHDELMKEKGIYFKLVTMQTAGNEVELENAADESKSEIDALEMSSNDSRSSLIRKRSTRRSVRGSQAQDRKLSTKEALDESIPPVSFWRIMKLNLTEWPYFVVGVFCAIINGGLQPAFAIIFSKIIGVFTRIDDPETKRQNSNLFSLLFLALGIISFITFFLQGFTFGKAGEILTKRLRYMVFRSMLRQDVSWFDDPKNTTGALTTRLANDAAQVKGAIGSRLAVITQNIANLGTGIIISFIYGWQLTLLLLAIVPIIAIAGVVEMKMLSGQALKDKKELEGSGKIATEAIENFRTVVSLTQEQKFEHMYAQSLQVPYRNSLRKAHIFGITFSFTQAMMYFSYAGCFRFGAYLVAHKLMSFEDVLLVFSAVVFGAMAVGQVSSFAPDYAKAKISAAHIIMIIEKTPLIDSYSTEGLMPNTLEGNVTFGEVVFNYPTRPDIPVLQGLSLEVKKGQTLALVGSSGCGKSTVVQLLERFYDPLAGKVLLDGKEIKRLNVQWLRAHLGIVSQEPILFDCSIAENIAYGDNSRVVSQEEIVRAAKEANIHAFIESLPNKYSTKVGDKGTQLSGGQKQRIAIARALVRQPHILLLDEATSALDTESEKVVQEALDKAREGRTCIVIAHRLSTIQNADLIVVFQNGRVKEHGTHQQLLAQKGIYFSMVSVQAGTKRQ
Kind of data set: Transcellular human P-gp assay (transfected LLC-PK1 cells). The format is in vitro ADME. As to conditions: LLC-PK1 cells over-expressing human P-gp. The source says:
The general assay uses transfected LLC-PK1 cells (porcine kidney epithelial cells) over-expressing human or mouse P-gp, cultured on 96 well semi-permeable filter membrane plates, where they form a polarized monolayer with tight junctions, and act as a barrier between the apical and basolateral compartment.
P-gp is expressed in the apical-facing membrane of the monolayer. […] J. Pharmacol. Exp Ther., 2021, 376, 322-329.

T1 sequence (Q96P20 whole entry): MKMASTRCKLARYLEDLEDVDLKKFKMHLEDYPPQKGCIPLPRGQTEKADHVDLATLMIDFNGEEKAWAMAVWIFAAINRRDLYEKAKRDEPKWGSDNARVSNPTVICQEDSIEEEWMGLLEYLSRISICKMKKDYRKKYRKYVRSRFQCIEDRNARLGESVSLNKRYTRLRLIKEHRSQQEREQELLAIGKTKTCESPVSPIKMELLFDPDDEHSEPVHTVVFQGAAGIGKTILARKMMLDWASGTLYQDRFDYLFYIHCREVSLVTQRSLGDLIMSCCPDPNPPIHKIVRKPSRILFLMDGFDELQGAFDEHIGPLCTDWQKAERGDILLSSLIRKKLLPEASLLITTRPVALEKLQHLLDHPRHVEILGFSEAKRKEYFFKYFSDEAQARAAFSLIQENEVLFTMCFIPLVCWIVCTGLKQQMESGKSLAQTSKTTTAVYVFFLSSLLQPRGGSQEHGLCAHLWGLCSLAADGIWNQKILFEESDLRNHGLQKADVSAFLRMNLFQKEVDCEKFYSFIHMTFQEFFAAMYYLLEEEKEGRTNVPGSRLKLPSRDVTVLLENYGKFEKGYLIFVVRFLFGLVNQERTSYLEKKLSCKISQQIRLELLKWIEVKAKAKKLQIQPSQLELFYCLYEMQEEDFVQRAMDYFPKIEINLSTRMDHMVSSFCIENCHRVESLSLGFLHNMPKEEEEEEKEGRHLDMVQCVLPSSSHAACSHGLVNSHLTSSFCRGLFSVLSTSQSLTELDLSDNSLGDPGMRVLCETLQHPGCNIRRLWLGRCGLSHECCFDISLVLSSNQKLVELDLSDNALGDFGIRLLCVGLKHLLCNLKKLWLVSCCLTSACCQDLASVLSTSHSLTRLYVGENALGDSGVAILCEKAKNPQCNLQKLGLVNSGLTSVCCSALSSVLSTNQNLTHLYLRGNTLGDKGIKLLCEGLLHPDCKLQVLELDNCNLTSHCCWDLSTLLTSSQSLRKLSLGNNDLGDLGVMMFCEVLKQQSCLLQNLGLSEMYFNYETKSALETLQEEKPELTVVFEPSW

With `COCc1cc2c(c(O)c1-c1ccc3oc(N[C@@H]4CCCN(CCO)C4)nc3n1)CCO2` [Example 12, 5-[2-[[(3R)-1-(2-Hydroxyethyl)-3-piperidyl]amino]oxazolo[4,5-b]pyridin-5-yl]-6-(methoxymethyl)-2,3-dihydrobenzofuran-4-ol], the values for the IC50 on NLRP3 [1] and against NLRP3 [3] were 15 nM and 8 nM, respectively. Moreover, the IC20 (usually the concentration needed for an effect of 20%) in data set [2] is over 10000 nM.
Compound `Cc1cc2c(c(O)c1-c1cnc3oc(N[C@@H]4CCCN(CCO)C4)nc3n1)CCC2` [Example 18, 5-[2-[[(3R)-1-(2-Hydroxyethyl)-3-piperidyl]amino]oxazolo[4,5-b]pyrazin-5-yl]-6-methyl-indan-4-ol] displayed an IC20 in data set [2] of 6300 nM. 2 nM corresponded to half-maximal inhibition at NLRP3 [3] (IC50).
Turning to `Cc1cc2c(c(O)c1-c1ccc3oc(N[C@@H]4CCCN(CCO)C4)nc3n1)CCO2` [Example 14, 5-[2-[[(3R)-1-(2-Hydroxyethyl)-3-piperidyl]amino]oxazolo[4,5-b]pyridin-5-yl]-6-methyl-2,3-dihydrobenzofuran-4-ol], the IC50 (usually the point on the concentration scale where inhibition reaches its midpoint) against NLRP3 [1] is 22 nM; at NLRP3 [3], 0.6 nM. For the same compound, the efflux ratio at human P-gp (read-out: ER (efflux ratio)) was determined as 4. In addition, the Papp on human P-gp (read-out: Permeability) is 13.5 ×10⁻⁶ cm/s.
`Cc1cc(C#N)cc(O)c1-c1cnc2oc(N[C@@H]3CCCN(CCO)C3)nc2n1` [Example 1, 3-Hydroxy-4-[2-[[(3R)-1-(2-hydroxyethyl)-3-piperidyl]amino]oxazolo[4,5-b]pyrazin-5-yl]-5-methyl-benzonitrile;2,2,2-trifluoroacetic Acid]: the IC50 was determined as 24.2 nM at NLRP3 [1] and 3.3 nM at NLRP3 [3].
As for `COCc1cc(C#N)cc(O)c1-c1cnc2oc(N[C@@H]3CCCN(CCO)C3)nc2n1` [Example 15, 3-Hydroxy-4-[2-[[(3R)-1-(2-hydroxyethyl)-3-piperidyl]amino]oxazolo[4,5-b]pyrazin-5-yl]-5-(methoxymethyl)benzonitrile;2,2,2-trifluoroacetic Acid], the IC50 against NLRP3 [1] was 33 nM; on NLRP3 [3], 34 nM. Further, in data set [2], the concentration for an effect of 20% (IC20) was over 10000 nM.
As to `Cc1cc2c(c(O)c1-c1cnc3oc(N[C@@H]4C[C@H](O)CN(CCO)C4)nc3n1)CCO2` [Example 24, (3S,5R)-1-(2-Hydroxyethyl)-5-[[5-(4-hydroxy-6-methyl-2,3-dihydrobenzofuran-5-yl)oxazolo[4,5-b]pyrazin-2-yl]amino]piperidin-3-ol], the half-maximal inhibitory concentration (IC50) was found to be 53 nM against NLRP3 [1] and 19 nM against NLRP3 [3].
For `COCc1cc(C#N)cc(O)c1-c1cc(OC)c2oc(N[C@@H]3CCCN(CCO)C3)nc2n1` [Example 20, 3-Hydroxy-4-[2-[[(3R)-1-(2-hydroxyethyl)-3-piperidyl]amino]-7-methoxy-oxazolo[4,5-b]pyridin-5-yl]-5-(methoxymethyl)benzonitrile] the same measures were 68 nM and 75 nM.
On to `Cc1cc(C#N)cc(O)c1-c1ccc2oc(N[C@@H]3CCCN(CCCc4ncco4)C3)nc2n1` [Example 28, 3-Hydroxy-5-methyl-4-[2-[[(3R)-1-(3-oxazol-2-ylpropyl)-3-piperidyl]amino]oxazolo[4,5-b]pyridin-5-yl]benzonitrile], for which the IC50 against NLRP3 [1] amounted to 86 nM; on NLRP3 [3], 23 nM.
Take `Cc1cc2c(c(O)c1-c1cnc3oc(N[C@@H]4CCCN(CCO)C4)nc3n1)CCO2` [Example 13, 5-[2-[[(3R)-1-(2-Hydroxyethyl)-3-piperidyl]amino]oxazolo[4,5-b]pyrazin-5-yl]-6-methyl-2,3-dihydrobenzofuran-4-ol]: the IC50 came to 19 nM on NLRP3 [1] and 0.8 nM at NLRP3 [3].
Consider `COCc1cc2c(c(O)c1-c1cnc3oc(N[C@@H]4CCCN(CCO)C4)nc3n1)CCO2` [Example 11, 5-[2-[[(3R)-1-(2-Hydroxyethyl)-3-piperidyl]amino]oxazolo[4,5-b]pyrazin-5-yl]-6-(methoxymethyl)-2,3-dihydrobenzofuran-4-ol], for which the IC50 is 8 nM against NLRP3 [1] and 4 nM at NLRP3 [3].
